Data from patent US20180016593A1, “HERBICIDE-RESISTANT SUNFLOWER PLANTS, POLYNUCLEOTIDES ENCODING HERBICIDE-RESISTANT ACETOHYDROXYACID SYNTHASE LARGE SUBUNIT PROTEINS, AND METHODS OF USE” (priority 2005, published 2018).
“And” between values parts separate entries of the source, which are not always exact repeats. Equal values may be shown once. Read-outs that look alike come from different tables or passages of the source.

System: sunflower lines carrying the A122T mutation
Assay type: in vivo, Helianthus annuus
Details: 14 DAT; for plant height, Dif A122T-A205V / root dry weight, Dif with A122T-A205V / biomass accumulation, Dif A122T-A205V: A122T mean minus A205V mean; for biomass accumulation, Dif with Control / plant height, Dif with Control / root dry weight, Dif with Control: A122T mean; for Phytotoxicity Index, Dif A205V-A122T: A205V mean minus A122T mean; for biomass accumulation, Mean / plant height, Mean / root dry weight, Mean: six A122T genotypes; for Phytotoxicity Index, Mean: three A122T genotypes
Protocol: A greenhouse study was conducted to quantify and contrast the imazapir sensivity of the mutants A122T and A205V in different genetic backgrounds at the whole plant level in sunflower. Seeds of the different sunflower lines that were used in this study were obtained under field conditions.
Seeds were sown in Petri dishes and, after germination, plantlets were transplanted to pots of 10 cm of diameter in a potting media consisting of equal parts of vermiculite, soil and sand. Plants were grown in a greenhouse under natural light conditions supplemented with 400 W sodium halide lamps to provide a 16 hrs daylength. Day/night temperatures were 25 and 20° C., respectively. At the V2 stage 10 plants of each genotype were randomly assigned to each treatment consisting of […] imazapir doses (0, 40, 80, 160, 240, 320, 400 and 480 g ai/ha), and a zero-time biomass determination. Experiment was arranged as a randomized block design with a full factorial (sunflower line×treatment) arrangement of treatments and 10 replications.
On the day of herbicide application ten plants of each genotype were cut at the cotyledonal node and dried at 60° C. for 48 hrs zero-time for dried weight determination.
Height was determined as the distance between the cotyledonal node and the apex of each plant. For root biomass determination, each plant was taken from the pot and the potting media was washed out from the roots. Above ground biomass data from each line were converted to biomass accumulation after application by subtracting the appropriate average zero-time biomass from each sample. Dry biomass data were converted to percentages of the untreated control plants within each line to allow direct comparisons between groups. […]

CC(C)C1(C)N=C(c2ncccc2C(=O)O)NC1=O (stereo not shown) [imazapyr]
plant height, Dif A122T-A205V (3x (240 g ai/ha)): 45.3 % of untreated plots | root dry weight, Dif with A122T-A205V (3x (240 g ai/ha)): 50.2 % of untreated plots | biomass accumulation, Dif A122T-A205V (4x (320 g ai/ha)): 52.4 % of untreated plots | plant height, Dif A122T-A205V (4x (320 g ai/ha)): 59.9 % of untreated plots | root dry weight, Dif with A122T-A205V (4x (320 g ai/ha)): 50.3 % of untreated plots | biomass accumulation, Dif A122T-A205V (5x (400 g ai/ha)): 46.9 % of untreated plots | plant height, Dif A122T-A205V (5x (400 g ai/ha)): 57.8 % of untreated plots | root dry weight, Dif with A122T-A205V (5x (400 g ai/ha)): 47.9 % of untreated plots | biomass accumulation, Dif A122T-A205V (6x (480 g ai/ha)): 44.6 % of untreated plots | plant height, Dif A122T-A205V (6x (480 g ai/ha)): 54.0 % of untreated plots | root dry weight, Dif with A122T-A205V (6x (480 g ai/ha)): 37.3 % of untreated plots | biomass accumulation, Dif with Control (0.5x (40 g ai/ha)): 1.1 % of untreated plots | plant height, Dif with Control (0.5x (40 g ai/ha)): 0.6 % of untreated plots | root dry weight, Dif with Control (0.5x (40 g ai/ha)): 0.1 % of untreated plots | biomass accumulation, Dif with Control (1x (80 g ai/ha)): 3.2 % of untreated plots | plant height, Dif with Control (1x (80 g ai/ha)): 1.4 % of untreated plots | root dry weight, Dif with Control (1x (80 g ai/ha)): 2.5 % of untreated plots | biomass accumulation, Dif with Control (2x (160 g ai/ha)): 5.1 % of untreated plots | plant height, Dif with Control (2x (160 g ai/ha)): 2.7 % of untreated plots | root dry weight, Dif with Control (2x (160 g ai/ha)): 5.9 % of untreated plots | biomass accumulation, Dif with Control (3x (240 g ai/ha)): 7.2 % of untreated plots | plant height, Dif with Control (3x (240 g ai/ha)): 4.4 % of untreated plots | root dry weight, Dif with Control (3x (240 g ai/ha)): 10.6 % of untreated plots | biomass accumulation, Dif with Control (4x (320 g ai/ha)): 12.2 % of untreated plots | plant height, Dif with Control (4x (320 g ai/ha)): 6.3 % of untreated plots | root dry weight, Dif with Control (4x (320 g ai/ha)): 18.6 % of untreated plots | biomass accumulation, Dif with Control (5x (400 g ai/ha)): 20.7 % of untreated plots | plant height, Dif with Control (5x (400 g ai/ha)): 10.2 % of untreated plots | root dry weight, Dif with Control (5x (400 g ai/ha)): 21.3 % of untreated plots | plant height, Dif with Control (6x (480 g ai/ha)): 15.8 % of untreated plots | root dry weight, Dif with Control (6x (480 g ai/ha)): 38.3 % of untreated plots | biomass accumulation, Dif with Control (6x (480 g ai/ha), listed as imazapir): 25 % of untreated plots and 25.4 % of untreated plots | Phytotoxicity Index, Dif A205V-A122T (0.5x (40 g ai/ha)): −0.29 | Phytotoxicity Index, Dif A205V-A122T (1x (80 g ai/ha)): −0.29 | Phytotoxicity Index, Dif A205V-A122T (2x (160 g ai/ha)): 1.87 | Phytotoxicity Index, Dif A205V-A122T (3x (240 g ai/ha)): 4.81 | Phytotoxicity Index, Dif A205V-A122T (4x (320 g ai/ha)): 6.92 | Phytotoxicity Index, Dif A205V-A122T (5x (400 g ai/ha)): 7.38 | Phytotoxicity Index, Dif A205V-A122T (6x (480 g ai/ha)): 7.03 | biomass accumulation, Mean (0.5x (40 g ai/ha)): 98.9 % of untreated plots | plant height, Mean (0.5x (40 g ai/ha)): 99.4 % of untreated plots | root dry weight, Mean (0.5x (40 g ai/ha)): 99.9 % of untreated plots | biomass accumulation, Mean (1x (80 g ai/ha)): 96.8 % of untreated plots | plant height, Mean (1x (80 g ai/ha)): 98.6 % of untreated plots | root dry weight, Mean (1x (80 g ai/ha)): 97.5 % of untreated plots | biomass accumulation, Mean (2x (160 g ai/ha)): 94.9 % of untreated plots | plant height, Mean (2x (160 g ai/ha)): 97.3 % of untreated plots | root dry weight, Mean (2x (160 g ai/ha)): 94.1 % of untreated plots | biomass accumulation, Mean (3x (240 g ai/ha)): 92.8 % of untreated plots | plant height, Mean (3x (240 g ai/ha)): 95.6 % of untreated plots | root dry weight, Mean (3x (240 g ai/ha)): 89.4 % of untreated plots | biomass accumulation, Mean (4x (320 g ai/ha)): 87.8 % of untreated plots | plant height, Mean (4x (320 g ai/ha)): 93.7 % of untreated plots | root dry weight, Mean (4x (320 g ai/ha)): 81.4 % of untreated plots | biomass accumulation, Mean (5x (400 g ai/ha)): 79.3 % of untreated plots | plant height, Mean (5x (400 g ai/ha)): 89.8 % of untreated plots | root dry weight, Mean (5x (400 g ai/ha)): 78.7 % of untreated plots | biomass accumulation, Mean (6x (480 g ai/ha)): 74.6 % of untreated plots | plant height, Mean (6x (480 g ai/ha)): 84.2 % of untreated plots | root dry weight, Mean (6x (480 g ai/ha)): 61.7 % of untreated plots | Phytotoxicity Index, Mean (0.5x (40 g ai/ha)): 0.3 | Phytotoxicity Index, Mean (1x (80 g ai/ha)): 0.3 | Phytotoxicity Index, Mean (2x (160 g ai/ha)): 0.3 | Phytotoxicity Index, Mean (3x (240 g ai/ha)): 0.3 | Phytotoxicity Index, Mean (4x (320 g ai/ha)): 0.5 | Phytotoxicity Index, Mean (5x (400 g ai/ha)): 0.8 | Phytotoxicity Index, Mean (6x (480 g ai/ha)): 1.2
